From patent publication US12433882B2, “Treatments for amyotrophic lateral sclerosis using dazucorilant” (Corcept Therapeutics Incorporated, priority 2022, dated 2025)

Test system: effect of prednisone on eosinophils, lymphocytes, neutrophils, osteocalcin
Assay: First In Human study Part 3, proof of pharmacological effect (prednisone challenge)
Format: in vivo
Excerpt: Linear mixed model of PD parameter estimates from part 3 of the FIE study, including terms for treatment fitted as a fixed effect, subject fitted as a random effect, and baseline concentration values fitted as a covariate. AUEC, area under the effect curve; cfb, change from baseline; CI, confidence interval; Emax, maximum change; ns, not significant.

For `C[C@]12C=CC(=O)C=C1CC[C@@H]1[C@@H]2C(=O)C[C@@]2(C)[C@H]1CC[C@]2(O)C(=O)CO` [Prednisone, prednisone], the “EOSINOPHILS AUEC(0-24) cfb (adjusted arithmetic mean)” value (Prednisone (25 mg) alone) was −2.80 109*h/L, the “LYMPHOCYTES AUEC(0-24) cfb (adjusted arithmetic mean)” value (Prednisone (25 mg) alone) was −2.470 109*h/L and the “NEUTROPHILS AUEC(0-24) cfb (adjusted arithmetic mean)” value (Prednisone (25 mg) alone) was 74.7 109*h/L. For the same molecule, the “effect of a single dose on eosinophils, lymphocytes, osteocalcin and neutrophils” value (single dose of prednisone) was “decreased eosinophils, lymphocytes, and osteocalcin, and increased neutrophils”.
